Measured values as given in patent US9663473B2 (Actelion Pharmaceuticals Ltd, priority 2013, dated 2017).

Molecular target: T1, recombinant human ALX receptor (Homo sapiens, UniProt P25090)
T1 construct: expressed in transfected cells; host or cells: HEK293 (HEK293-hALXR-Gα16)
T1 sequence (P25090 1-351): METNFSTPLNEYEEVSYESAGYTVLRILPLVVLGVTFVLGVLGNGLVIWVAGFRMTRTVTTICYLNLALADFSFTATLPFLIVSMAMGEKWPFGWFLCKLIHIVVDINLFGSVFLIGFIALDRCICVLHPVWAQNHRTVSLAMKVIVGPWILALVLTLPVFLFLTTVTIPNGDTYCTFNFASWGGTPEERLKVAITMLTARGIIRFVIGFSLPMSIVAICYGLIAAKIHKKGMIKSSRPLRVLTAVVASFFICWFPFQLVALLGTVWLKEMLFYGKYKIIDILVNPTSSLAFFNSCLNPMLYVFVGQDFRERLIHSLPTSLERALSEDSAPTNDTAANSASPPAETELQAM
Test: Intracellular calcium measurements (FLIPR), ALX receptor agonistic activity
Format: cell-based
Conditions: HEK293-hALXR-Gα16 cells, Fluo-4 calcium signal, normalized to WKYMVm 10 nM
In short: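 Agonist-induced calcium flux was read by FLIPR (488/540 nm) as baseline-subtracted peak emission, expressed relative to WKYMVm at 10 nM final. Cells used: HEK293-hALXR-Gα16, dye-loaded 60 min at 37° C. with 1 μM Fluo-4 AM before compound dose-response addition.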

Row | Compound | EC50
1 | O=C(NC(Cc1ccc(C(F)(F)F)c(F)c1)c1nc2ccccc2[nH]1)N[C@H]1CC[C@H](O)CC1 (relative stereo) [Example 237, 1-(1-(1H-Benzo[d]imidazol-2-yl)-2-(3-fluoro-4-(trifluoromethyl)phenyl)ethyl)-3-(trans-4-hydroxycyclohexyl)urea] | 36 nM
2 | CCc1ccc(CC(NC(=O)N[C@H]2CC[C@H](O)CC2)c2nc3cc(F)ccc3[nH]2)cc1 (single isomer, unassigned; ent-1) [Example 368, 1-(2-(4-Ethylphenyl)-1-(5-fluoro-1H-benzo[d]imidazol-2-yl)ethyl)-3-(trans-4-hydroxycyclohexyl)urea (ent-1)] | 1.8 nM
3 | COc1ccc(CC(NC(=O)Nc2ncc(C)s2)c2nc3ccccc3[nH]2)cc1 (stereo not shown) [Example 402, 1-(1-(1H-Benzo[d]imidazol-2-yl)-2-(4-methoxyphenyl)ethyl)-3-(5-methylthiazol-2-yl)urea] | 784 nM
4 | CC(F)(F)c1ccc(CC(NC(=O)N[C@H]2CC[C@H](O)CC2)c2nc3ccccc3[nH]2)cc1 (single isomer, unassigned; ent-1) [Example 394, 1-(1-(1H-Benzo[d]imidazol-2-yl)-2-(4-(1,1-difluoroethyl)phenyl)ethyl)-3-(trans-4-hydroxycyclohexyl)urea (ent-1)] | 4.7 nM
5 | COc1ccc(C[C@@H](NC(=O)N[C@H]2CC[C@H](O)CC2)c2nc3cc(Br)ccc3[nH]2)cc1 [Example 179, 1-((R)-1-(5-Bromo-1H-benzo[d]imidazol-2-yl)-2-(4-methoxyphenyl)ethyl)-3-(trans-4-hydroxycyclohexyl)urea] | 1.1 nM
6 | COc1ccc(CC(NC(=O)Nc2ccnn2C(C)(C)C)c2nc3ccccc3[nH]2)cc1 (stereo not shown) [Example 414, 1-(1-(1H-benzo[d]imidazol-2-yl)-2-(4-methoxyphenyl)ethyl)-3-(1-(tert-butyl)-1H-pyrazol-5-yl)urea] | 30 nM
7 | COc1ccc(CC(NC(=O)NC23CCC(O)(CC2)CC3)c2nc3ccccc3[nH]2)c(F)c1F (stereo not shown) [Example 251, 1-(1-(1H-Benzo[d]imidazol-2-yl)-2-(2,3-difluoro-4-methoxyphenyl)ethyl)-3-(4-hydroxybicyclo[2.2.2]octan-1-yl)urea] | 6.6 nM
8 | CCC(CC)NC(=O)N[C@H](Cc1ccc(OC)cc1)c1nc2ccccc2[nH]1 [Example 97, (R)-1-(1-(1H-Benzo[d]imidazol-2-yl)-2-(4-methoxyphenyl)ethyl)-3-(pentan-3-yl)urea] | 124 nM
9 | COc1ccc(C[C@@H](NC(=O)NC2CN3CCC2CC3)c2nc3ccccc3[nH]2)cc1 (stereo partly drawn) [Example 89, 1-((R)-1-(1H-Benzo[d]imidazol-2-yl)-2-(4-methoxyphenyl)ethyl)-3-(quinuclidin-3-yl)urea] | 15 nM
10 | C[C@]1(O)CC[C@H](NC(=O)NC(Cc2ccc(C(F)(F)F)c(F)c2)c2nc3ccccc3[nH]2)CC1 (mixture of isomers) [Example 239, 1-(1-(1H-Benzo[d]imidazol-2-yl)-2-(3-fluoro-4-(trifluoromethyl)phenyl)ethyl)-3-(trans-4-hydroxy-4-methylcyclohexyl)urea] | 77 nM
11 | COc1cc(F)c(CC(NC(=O)N[C@H]2CC[C@](C)(O)CC2)c2nc3ccccc3[nH]2)c(F)c1 (mixture of isomers) [Example 236, 1-(1-(1H-Benzo[d]imidazol-2-yl)-2-(2,6-difluoro-4-methoxyphenyl)ethyl)-3-(trans-4-hydroxy-4-methylcyclohexyl)urea] | 3.5 nM
12 | O=C(NC(Cc1ccc(C(F)F)cc1)c1nc2ccccc2[nH]1)N[C@H]1CC[C@H](O)CC1 (single isomer, unassigned; ent-2) [Example 369, 1-(1-(1H-Benzo[d]imidazol-2-yl)-2-(4-(difluoromethyl)phenyl)ethyl)-3-(trans-4-hydroxycyclohexyl)urea (ent-2)] | 7.2 nM
13 | COc1ccc(C[C@@H](NC(=O)NCCC2CCN(C(=O)OC(C)(C)C)CC2)c2nc3ccccc3[nH]2)cc1 [Example 155, (R)-tert-Butyl 4-(2-(3-(1-(1H-benzo[d]imidazol-2-yl)-2-(4-methoxyphenyl)ethyl)ureido)ethyl)piperidine-1-carboxylate] | 489 nM
14 | COc1ccc(C[C@@H](NC(=O)N[C@H](C)c2ccc(OC)cc2)c2nc3ccccc3[nH]2)cc1 [Example 336, 1-((R)-1-(1H-Benzo[d]imidazol-2-yl)-2-(4-methoxyphenyl)ethyl)-3-((R)-1-(4-methoxyphenyl)ethyl)urea] | 248 nM
15 | COc1ccc(CC(C)(NC(=O)Nc2cc(C3CC3)nn2C)c2nc3ccccc3[nH]2)cc1 (stereo not shown) [Example 422, 1-(2-(1H-benzo[d]imidazol-2-yl)-1-(4-methoxyphenyl)propan-2-yl)-3-(3-cyclopropyl-1-methyl-1H-pyrazol-5-yl)urea] | 720 nM

The remaining lines, values ahead:

Row | EC50 | Compound
16 | 400 nM | COc1ccc(C[C@@H](NC(=O)N2CCCCC2)c2nc3ccccc3[nH]2)cc1 [Example 86, (R)—N-(1-(1H-Benzo[d]imidazol-2-yl)-2-(4-methoxyphenyl)ethyl)piperidine-1-carboxamide]
17 | 62 nM | COc1ccc(C[C@@H](NC(=O)N[C@@H]2CCCC[C@@H]2O)c2nc3ccccc3[nH]2)cc1 (relative stereo) [Example 145, 1-((R)-1-(1H-Benzo[d]imidazol-2-yl)-2-(4-methoxyphenyl)ethyl)-3-((1R*,2S*)-2-hydroxycyclohexyl)urea]
18 | 27 nM | COc1ccc(C[C@@H](NC(=O)N[C@H]2CCNC[C@@H]2F)c2nc3ccccc3[nH]2)cc1 (relative stereo) [Example 165, 1-((R)-1-(1H-Benzo[d]imidazol-2-yl)-2-(4-methoxyphenyl)ethyl)-3-((3S*,4S*)-3-fluoropiperidin-4-yl)urea]
19 | 48 nM | COc1ccc(C[C@@H](NC(=O)NCC2CCCC2)c2nc3ccccc3[nH]2)cc1 [Example 92, (R)-1-(1-(1H-Benzo[d]imidazol-2-yl)-2-(4-methoxyphenyl)ethyl)-3-(cyclopentylmethyl)urea]
20 | 107 nM | COc1ccc(C[C@@H](NC(=O)N[C@H]2CC[C@H](O)c3ccccc32)c2nc3ccccc3[nH]2)cc1 (relative stereo) [Example 134, 1-((R)-1-(1H-Benzo[d]imidazol-2-yl)-2-(4-methoxyphenyl)ethyl)-3-((1 S*,4S*)-4-hydroxy-1,2,3,4-tetrahydronaphthalen-1-yl)urea]
21 | 195 nM | COc1ccc(C[C@@H](NC(=O)NCCCO)c2nc3ccccc3[nH]2)cc1 [Example 95, (R)-1-(1-(1H-Benzo[d]imidazol-2-yl)-2-(4-methoxyphenyl)ethyl)-3-(3-hydroxypropyl)urea]
22 | 31 nM | Cc1ccc(C[C@@H](NC(=O)N[C@H]2CC[C@H](O)CC2)c2nc3ccccc3[nH]2)cc1 [Example 191, 1-((R)-1-(1H-Benzo[d]imidazol-2-yl)-2-(p-tolyl)ethyl)-3-(trans-4-hydroxycyclohexyl)urea]
23 | 14 nM | COc1ccc(C[C@@H](NC(=O)NC2CCN(CCc3ccccc3)CC2)c2nc3ccccc3[nH]2)cc1 [Example 105, (R)-1-(1-(1H-Benzo[d]imidazol-2-yl)-2-(4-methoxyphenyl)ethyl)-3-(1-phenethylpiperidin-4-yl)urea]
24 | 51 nM | COc1ccc(CC(NC(=O)Nc2ccccc2)c2nc3ccccc3[nH]2)cc1 (stereo not shown) [Example 169, 1-(1-(1H-Benzo[d]imidazol-2-yl)-2-(4-methoxyphenyl)ethyl)-3-phenylurea]
25 | 539 nM | COc1ccc(C[C@@H](NC(=O)N[C@H]2CCN(C(=O)OC(C)(C)C)C2)c2nc3ccccc3[nH]2)cc1 [Example 119, (S)-tert-Butyl 3-(3-((R)-1-(1H-benzo[d]imidazol-2-yl)-2-(4-methoxyphenyl)ethyl)ureido)pyrrolidine-1-carboxylate]
26 | 299 nM | COc1ccc(C[C@@H](NC(=O)Nc2cccnc2)c2nc3ccccc3[nH]2)cc1 [Example 315, (R)-1-(1-(1H-Benzo[d]imidazol-2-yl)-2-(4-methoxyphenyl)ethyl)-3-(pyridin-3-yl)urea]
27 | 115 nM | COc1ccc(C[C@@H](NC(=O)NCCc2ccccc2C(F)(F)F)c2nc3ccccc3[nH]2)cc1 [Example 274, (R)-1-(1-(1H-Benzo[d]imidazol-2-yl)-2-(4-methoxyphenyl)ethyl)-3-(2-(trifluoromethyl)phenethyl)urea]
28 | 2680 nM | COc1ccc(C[C@@H](NC(=O)NCCN2CCN(C(C)=O)CC2)c2nc3ccccc3[nH]2)cc1 [Example 390, (R)-1-(1-(1H-Benzo[d]imidazol-2-yl)-2-(4-methoxyphenyl)ethyl)-3-(2-(4-acetylpiperazin-1-yl)ethyl)urea]
29 | 62 nM | COc1ccc(CC(NC(=O)NC2CCC2)c2nc3ccccc3[nH]2)cc1 (stereo not shown) [Example 11, 1-(1-(1H-Benzo[d]imidazol-2-yl)-2-(4-methoxyphenyl)ethyl)-3-cyclobutylurea]
30 | 44 nM | COc1ccc(C[C@@H](NC(=O)N[C@@H](C)c2cccc(OC)c2)c2nc3ccccc3[nH]2)cc1 [Example 323, 1-((R)-1-(1H-Benzo[d]imidazol-2-yl)-2-(4-methoxyphenyl)ethyl)-3-((S)-1-(3-methoxyphenyl)ethyl)urea]
31 | 14 nM | COc1ccc(C[C@@H](NC(=O)NC2CC(C)(C)NC(C)(C)C2)c2nc3ccccc3[nH]2)cc1 [Example 87, (R)-1-(1-(1H-Benzo[d]imidazol-2-yl)-2-(4-methoxyphenyl)ethyl)-3-(2,2,6,6-tetramethylpiperidin-4-yl)urea]
